Some test systems named below: DLD-1 colon; DMS 273 small cell lung; HOP-18 NSCLC; KM12 colon; KM20L2 colon; LXFL 529 NSCLC; M19-MEL melanoma; RPMI-8226 leukemia; SNB-78 CNS; DMS 114 small cell lung; XF 498 CNS.
Holding throughout (experiment): inhibition of tumour cell growth, NCI panel, 48 h

TGI data for 30 compounds are collected here from PubChem BioAssay (NCI).

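Cultured in 96-well plates, cells were exposed to test compound for 48 hours across five concentrations. TGI: concentration producing complete growth inhibition.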

Take `CN(C)C(=NC#N)N(Cc1ccccc1)Cc1ccccc1`: the TGI in the assay on DLD-1 colon, in the assay with DMS 273 small cell lung, in the assay on HOP-18 NSCLC, in the assay with KM12 colon, with KM20L2 colon and in the assay on LXFL 529 NSCLC was above 100 µM each time. Further, the TGI in the assay with M19-MEL melanoma, in the assay on RPMI-8226 leukemia and with SNB-78 CNS was above 100 µM each time.
On to `CC1(C)CCCCCCCCCC2CC2CCC(C)(C)C1=O` (stereo not drawn), for which the TGI with KM12 colon stood at 34.9 µM; in the assay on RPMI-8226 leukemia it was 75.9 µM.
Take `CC(C)OP(=O)(OC(C)C)C(=NCCN=C(NNc1ccccc1[N+](=O)[O-])P(=O)(OC(C)C)OC(C)C)NNc1ccccc1[N+](=O)[O-]`: the TGI with DLD-1 colon is above 100 µM; in the assay on DMS 114 small cell lung, above 100 µM; in the assay on DMS 273 small cell lung, above 100 µM; in the assay with KM12 colon, above 100 µM; with KM20L2 colon, 60.2 µM; in the assay with LXFL 529 NSCLC, above 100 µM. Moreover, the TGI with M19-MEL melanoma and in the assay on RPMI-8226 leukemia was above 100 µM in each case.
As for `CCC1CCC2c3c([nH]c4ccc(C)cc34)C3C(=O)N(N(C)C)C(=O)C3C2C1` (stereo not drawn), the TGI in the assay with KM12 colon was above 100 µM; in the assay with RPMI-8226 leukemia, above 88.3 µM.
In the same order, the values of `O=C(CN=C(CN(c1ccccc1)c1ccccc1)Oc1ccc(Cl)cc1Cl)n1ccnc1` are above 100 µM and above 100 µM.
In the same order, the values of `Cc1ccsc1C(=S)Nc1ccc(Cl)c(/C=N/OC(C)C)c1` are above 100 µM and 34.1 µM.
The matching figures for `CC(=O)Oc1ccc2cc(-c3ccc(OC(C)=O)c(OC(C)=O)c3)c(=O)oc2c1`: 61.3 µM and above 100 µM.
As to `Cc1ccc(C(=O)N/N=C(\N=Nc2ccccc2Cl)c2ccc(N(C)C)cc2)cc1`, the TGI with KM12 colon and in the assay with RPMI-8226 leukemia was above 100 µM throughout.
Consider `CCOC(=O)C(NC(=O)CC)(Nc1ccc(F)cc1F)C(F)(F)F` (stereo not drawn), for which the TGI in the assay on RPMI-8226 leukemia is above 100 µM.
Consider `O=C(Cc1nc2ccc([N+](=O)[O-])cc2[nH]c1=O)C(=O)Nc1ccccc1[N+](=O)[O-]`, for which the TGI in the assay on DLD-1 colon, in the assay on DMS 114 small cell lung, in the assay on DMS 273 small cell lung, in the assay with KM12 colon, in the assay with KM20L2 colon and in the assay with LXFL 529 NSCLC was above 100 µM in each case. Also, the TGI in the assay on M19-MEL melanoma is above 100 µM.
For the compound `Cc1cc(S(=O)(=O)NC(=NCCc2ccccc2)NN)c(S)cc1Cl`, the TGI in the assay on KM12 colon was 66.7 µM; in the assay on RPMI-8226 leukemia, above 100 µM.
Take `O=C1[C@@H](O)[C@@H]2CCCC[C@@]23CCCN13`: the TGI in the assay on KM12 colon and in the assay with RPMI-8226 leukemia was above 100 µM throughout.
Turning to `Cc1cn(C2CCN(CC3COC(C)(C)O3)O2)c(=O)[nH]c1=O` (stereo not drawn), the TGI in the assay on KM12 colon and with RPMI-8226 leukemia was above 100 µM each time.
In turn, `O=S(=O)(CCC[C@H]1[C@@H](CCOCc2ccccc2)C2CCCN1O2)c1ccccc1` (stereo partly drawn) came in with a TGI in the assay with KM12 colon above 100 µM.
As for `CC(C)C(Sc1nc(-c2ccccc2)c(-c2ccccc2)[nH]1)c1n[nH]c(=S)n1-c1ccccc1` (stereo not drawn), the TGI in the assay with DLD-1 colon was above 100 µM; in the assay with DMS 273 small cell lung, above 100 µM; with KM12 colon, 30.5 µM; in the assay on KM20L2 colon, 62.8 µM; with LXFL 529 NSCLC, 54.4 µM; with M19-MEL melanoma, 35.5 µM. Further, the TGI with RPMI-8226 leukemia is 76 µM; in the assay with SNB-78 CNS, above 100 µM; in the assay with XF 498 CNS it was 80.3 µM.
Regarding `CN(C)CC1CCC/C(=C\c2ccccc2)C1=O` (stereo not drawn), the TGI in the assay with KM12 colon was found to be 2.59 µM.
Turning to `CCCCC1(O)CC2CC1C(C)C2(C)C` (stereo not drawn), the TGI with KM12 colon and in the assay with RPMI-8226 leukemia was above 100 µM each time.
Take `Cc1ccccc1Nc1nc(NNC(=O)Cc2ccccc2)nc(NNC(=O)c2ccncc2)n1`: the TGI with KM12 colon and with RPMI-8226 leukemia was above 10 µM throughout.
`CC1=CC(=O)N(n2c(Cc3ccc(Cl)cc3)n[nH]c2=O)C1=O`: the TGI is above 100 µM in the assay with KM12 colon and 53.2 µM in the assay on RPMI-8226 leukemia.
The matching figures for `CCC12C=CCN3CCC4(c5cc(C(c6ccc(OC)cc6)C6Cc7ccccc7N6)c(OC)cc5N(C)C4C(O)(C(=O)OC)C1O)C32` (stereo not drawn): 36.5 µM and 13.8 µM.
Consider `O=c1[nH]nc(Cc2ccccc2)n1/N=C/c1ccc([N+](=O)[O-])cc1`, for which the TGI with KM12 colon was above 100 µM.
With `CCOc1cccc(-c2cc(=O)c3cc4c(cc3[nH]2)OCO4)c1`, the TGI in the assay on RPMI-8226 leukemia was above 100 µM.
Turning to `COc1ccc(-c2nc3c(C(=O)NCCN(C)C)cccc3c3ccccc23)cc1`, the TGI with KM12 colon was found to be 14.9 µM.
Take `O=C1C=C(c2ccccc2)O/C1=C\C(=O)c1ccc(Cl)cc1`: the TGI in the assay on KM12 colon was 80.5 µM; in the assay with RPMI-8226 leukemia, above 100 µM.
`CCOC(=O)c1sc2nc1CSc1sc(=S)sc1SCc1nc(sc1C(=O)OCC)-c1nc(c(C(=O)OCC)s1)CSc1sc(=S)sc1SCc1nc-2sc1C(=O)OCC`: the TGI with KM12 colon and with RPMI-8226 leukemia was above 10 µM throughout.
Consider `Cc1cc(C)nc(NS(=O)(=O)c2ccc(NC(=O)NC(F)(F)F)cc2)n1`, for which the TGI in the assay on RPMI-8226 leukemia was above 100 µM.
In the case of `COc1cc(C2OC[C@@H]3C(=O)OC[C@H]23)cc(O)c1OC` (stereo partly drawn), the TGI in the assay on KM12 colon and in the assay with RPMI-8226 leukemia was above 100 µM throughout.
Regarding `COC(=O)Cn1c(=O)oc2nc(-c3ccccc3)cc(C(F)(F)F)c21`, the TGI in the assay on KM12 colon is above 100 µM; in the assay with RPMI-8226 leukemia it was 95.8 µM.
The matching figures for `CCNc1nnc(-c2ccccc2Nc2ccccc2-c2nnc(NCC)s2)s1`: 37.2 µM and 73.4 µM.
In the same order, the values of `O=[N+]([O-])C(/C=C(\Cl)[N+](=O)[O-])=C(N1CCCCC1)N1CCCCC1` are above 100 µM and above 100 µM.
